The record followed here is US20160201063A1, “EPIGENETIC REGULATORS OF FRATAXIN” (RANA THERAPEUTICS, INC., priority 2013, published 2016).

Assay [1] has as its system FXN mRNA. In words: Screen of library of eighty epigenetic inhibitors in GM03816 FRDA diseased fibroblasts, FXN mRNA fold change. The class given is cell-based, human. The conditions noted are these: for fold induction at 1 µM / fold induction at 5 µM: Homo sapiens, Fibroblast, 72 h; for fold induction at 1 µM: read-out: 3816 1 uM (FXN mRNA fold change); for fold induction at 5 µM: read-out: 3816 5 uM (FXN mRNA fold change). On the procedure:
FXN RNA levels are indicated on the y-axis and the inhibitors used at both 1 μM and 5 μM are shown on the x-axis.
A screen of a library of eighty epigenetic inhibitors (Cayman Chemical) was performed in GM03816 FRDA fibroblasts to identify epigenetic regulators that upregulate FXN expression.

Assay [2] concerns FXN mRNA. The assay can be described thus: Screen of epigenetic inhibitors in GM0321 normal fibroblasts, FXN RNA levels. In kind it is cell-based, human. Conditions: for fold induction at 5 µM / fold induction at 1 µM: Homo sapiens, Fibroblast, 72 h; for fold induction at 5 µM: read-out: FXN mRNA fold change, 321B 5 uM; for fold induction at 1 µM: read-out: FXN mRNA fold change, 321B 1 uM.

Where [3] appears, read: GM03816 FRDA diseased fibroblasts, 1 uM inhibitor, 3 days of treatment.
The mark [4] stands for this setting: GM03816 FRDA diseased fibroblasts, 5 uM inhibitor, 3 days of treatment.
The mark [5] stands for this setting: GM0321 normal fibroblasts, 1 uM inhibitor, 3 days of treatment.
Where [6] appears, read: GM0321 normal fibroblasts, 5 uM inhibitor, 3 days of treatment.

In the case of `COCCCn1c(N)c(C(=O)NC2CCCC2)c2nc3ccccc3nc21` [CAY10591], the “3816 1 uM (FXN mRNA fold change)” value in the assay on FXN mRNA [1] (setting [3]) was found to be 1.311. Also, the “3816 5 uM (FXN mRNA fold change)” value in the assay on FXN mRNA [1] (setting [4]) is listed as 1.377. In addition, the “FXN mRNA fold change, 321B 1 uM” value with FXN mRNA [2] (setting [5]) is on record as 0.9828. The “FXN mRNA fold change, 321B 5 uM” value in the assay with FXN mRNA [2] (setting [6]) is given as 1.437.

Take `N#C/C(=C\c1ccc(-c2cc(Cl)ccc2Cl)o1)C(=O)Nc1cccc2ncccc12` [AGK2]: in the assay on FXN mRNA [1] (setting [3]), the “3816 1 uM (FXN mRNA fold change)” value is on record as 1.206. Moreover, the “3816 5 uM (FXN mRNA fold change)” value in the assay with FXN mRNA [1] (setting [4]) was determined as 1.101. In addition, the “FXN mRNA fold change, 321B 1 uM” value in the assay on FXN mRNA [2] (setting [5]) is given as 1.115. Besides, the “FXN mRNA fold change, 321B 5 uM” value in the assay with FXN mRNA [2] (setting [6]) was found to be 1.053.

Turning to `O=C(O)CNC(=O)C(=O)O` [N-Oxalylglycine], the fold induction at 1 µM in the assay on FXN mRNA [1] (setting [3]) is 0.708. The fold induction at 5 µM in the assay with FXN mRNA [1] (setting [4]) was found to be 1.03; in the assay on FXN mRNA [2] (setting [6]), 0.68.

For `Nc1ncnc2c1ncn2[C@@H]1O[C@H](CSCC[C@H](N)C(=O)O)[C@@H](O)[C@H]1O` [S-Adenosylhomocysteine], the fold induction at 1 µM was determined as 1.07 in the assay on FXN mRNA [1] (setting [3]) and 0.975 in the assay with FXN mRNA [2] (setting [5]). The fold induction at 5 µM was determined as 0.886 in the assay with FXN mRNA [1] (setting [4]) and 0.619 in the assay on FXN mRNA [2] (setting [6]).

In the case of `O=C(/C=C/c1ccc(O)cc1)c1ccc(O)cc1O` [Isoliquiritigenin], the figures for the fold induction at 1 µM in the assay with FXN mRNA [1] (setting [3]) and in the assay on FXN mRNA [2] (setting [5]) were 1.27 and 1.16, respectively. Also, the values for the fold induction at 5 µM in the assay on FXN mRNA [1] (setting [4]) and in the assay with FXN mRNA [2] (setting [6]) were 0.963 and 1.29, respectively.

With `CC(C(=O)Nc1cccc(/N=C/c2c(O)ccc3ccccc23)c1)c1ccccc1` (stereo not shown) [Salermide], the fold induction at 1 µM with FXN mRNA [1] (setting [3]) was 1.16; with FXN mRNA [2] (setting [5]) it was 1.06. Besides, the fold induction at 5 µM in the assay with FXN mRNA [1] (setting [4]) amounted to 0.996; in the assay with FXN mRNA [2] (setting [6]), 0.815.

With `NC(=O)c1ccc(I)c([N+](=O)[O-])c1` [BSI-201], the results for the fold induction at 1 µM with FXN mRNA [1] (setting [3]) and with FXN mRNA [2] (setting [5]) were 1.13 and 1.03, respectively. Also, the fold induction at 5 µM with FXN mRNA [1] (setting [4]) came to 0.844; in the assay with FXN mRNA [2] (setting [6]), 0.985.

On to UNC0321 (trifluoroacetate salt), for which the “3816 1 uM (FXN mRNA fold change)” value in the assay on FXN mRNA [1] (setting [3]) is 0.9323. In the assay with FXN mRNA [1] (setting [4]), the “3816 5 uM (FXN mRNA fold change)” value was determined as 0.8929. Further, the “FXN mRNA fold change, 321B 1 uM” value in the assay on FXN mRNA [2] (setting [5]) came out at 0.7517. The “FXN mRNA fold change, 321B 5 uM” value with FXN mRNA [2] (setting [6]) is recorded as 0.605.

On to `CC(C)(C)OC(=O)Nc1ccc(-c2cc(C(=O)NCCCCCCC(=O)NO)no2)cc1` [CAY10603], for which the “3816 1 uM (FXN mRNA fold change)” value in the assay on FXN mRNA [1] (setting [3]) came to 0.5205. Moreover, the “3816 5 uM (FXN mRNA fold change)” value with FXN mRNA [1] (setting [4]) worked out at 0.07004. The “FXN mRNA fold change, 321B 1 uM” value with FXN mRNA [2] (setting [5]) was 0.3592.

Consider `C=C(C)[C@@H](CC=C(C)C)C[C@@]12C[C@@H](CC=C(C)C)C(C)(C)[C@@](CC=C(C)C)(C(=O)C(C(=O)c3ccc(O)c(O)c3)=C1O)C2=O` [Garcinol], for which the values for the fold induction at 1 µM in the assay on FXN mRNA [1] (setting [3]) and in the assay on FXN mRNA [2] (setting [5]) were 1.01 and 0.63, respectively. The figures for the fold induction at 5 µM in the assay on FXN mRNA [1] (setting [4]) and with FXN mRNA [2] (setting [6]) were 1.09 and 1.33, respectively.

As to `COC(=O)CNC(=O)C(=O)OC` [DMOG], in the assay with FXN mRNA [1] (setting [3]), the “3816 1 uM (FXN mRNA fold change)” value is reported as 0.9685. Also, the “3816 5 uM (FXN mRNA fold change)” value in the assay on FXN mRNA [1] (setting [4]) is listed as 0.9131. Also, in the assay with FXN mRNA [2] (setting [5]), the “FXN mRNA fold change, 321B 1 uM” value was found to be 0.7317. Further, the “FXN mRNA fold change, 321B 5 uM” value in the assay on FXN mRNA [2] (setting [6]) was determined as 0.9433.

As for `O=C(O)c1cccc2ccccc12` [1-Naphthoic Acid], the figures for the fold induction at 1 µM in the assay on FXN mRNA [1] (setting [3]) and with FXN mRNA [2] (setting [5]) were 1.05 and 0.819, respectively. Also, the fold induction at 5 µM amounted to 0.869 with FXN mRNA [1] (setting [4]) and 0.72 with FXN mRNA [2] (setting [6]).

As to `CCCC(CCC)C(=O)O` [Valproic acid], the fold induction at 1 µM was found to be 0.901 in the assay with FXN mRNA [1] (setting [3]) and 1.26 in the assay on FXN mRNA [2] (setting [5]). The fold induction at 5 µM was found to be 1 in the assay with FXN mRNA [1] (setting [4]) and 0.847 in the assay on FXN mRNA [2] (setting [6]).

`CCCC(=O)[O-].[Na+]` [Sodium Butyrate]: in the assay on FXN mRNA [1], the fold induction at 1 µM stood at 1.03 and the fold induction at 5 µM amounted to 1.16. Further, in the assay with FXN mRNA [2], the fold induction at 1 µM was 1.06 and the fold induction at 5 µM stood at 0.707.

`CC(C)[C@H](C(=O)Nc1ccc(C(=O)NO)cc1)c1ccccc1` [(S)-HDAC-42]: the “3816 1 uM (FXN mRNA fold change)” value in the assay on FXN mRNA [1] (setting [3]) was 0.2419. Also, in the assay with FXN mRNA [1] (setting [4]), the “3816 5 uM (FXN mRNA fold change)” value was determined as 0.1894. Further, the “FXN mRNA fold change, 321B 5 uM” value with FXN mRNA [2] (setting [6]) is 0.6941.

In the case of `O=C(O)c1ccc(O)c2ncccc12` [IOX1], the “3816 1 uM (FXN mRNA fold change)” value in the assay on FXN mRNA [1] (setting [3]) was 1.272. Also, the “3816 5 uM (FXN mRNA fold change)” value in the assay with FXN mRNA [1] (setting [4]) is 0.8722. For the same compound, the “FXN mRNA fold change, 321B 1 uM” value with FXN mRNA [2] (setting [5]) is reported as 0.9479. Further, the “FXN mRNA fold change, 321B 5 uM” value with FXN mRNA [2] (setting [6]) is listed as 0.7185.

For `Nc1ccccc1NC(=O)c1ccc(CNC(=O)OCc2cccnc2)cc1` [MS-275], in the assay on FXN mRNA [1] (setting [3]), the “3816 1 uM (FXN mRNA fold change)” value worked out at 0.2266. The “3816 5 uM (FXN mRNA fold change)” value with FXN mRNA [1] (setting [4]) is listed as 0.2333. Further, the “FXN mRNA fold change, 321B 5 uM” value in the assay with FXN mRNA [2] (setting [6]) is 0.2713.
